Reference: PMC10589313 (Nature Communications, 2023)
Several values for one entry are separate records, joined by “and”; a condition that tells them apart may be missing. Identical values can stand only once.

Key:
human wild-type H4R = biological target: T1, human wild-type H4R (Homo sapiens, UniProt Q9H3N8); experiment: TGFα shedding assay, wild-type H4R; type: cell-based; settings: WT H4R; AP-TGFα release; read-out: Emax (%) mean ± SEM
T1 construct: a mutant H4R (human, full-length, and untagged); expressed in transfected cells; host or cells: HEK293A
T1 sequence (Q9H3N8 whole entry): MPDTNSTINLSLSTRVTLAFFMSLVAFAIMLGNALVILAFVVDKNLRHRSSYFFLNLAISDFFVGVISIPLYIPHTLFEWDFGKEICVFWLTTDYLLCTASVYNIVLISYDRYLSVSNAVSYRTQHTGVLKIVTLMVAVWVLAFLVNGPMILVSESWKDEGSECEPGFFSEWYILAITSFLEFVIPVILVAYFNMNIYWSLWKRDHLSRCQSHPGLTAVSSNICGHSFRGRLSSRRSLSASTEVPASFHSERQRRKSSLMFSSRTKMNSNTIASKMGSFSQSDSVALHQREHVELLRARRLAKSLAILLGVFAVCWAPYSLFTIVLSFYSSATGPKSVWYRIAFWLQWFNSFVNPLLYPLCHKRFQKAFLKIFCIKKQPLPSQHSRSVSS
Procedure: (§1) The mutants were prepared using the primers listed in Supplementary Table 2. […] The chimeric Gαq/i1 subunit comprises the Gαq backbone and Gαi1-derived six-amino acid C-terminus and couples with Gi-coupled H4R but induces a Gq-dependent TGFα shedding response. After culturing for 1 day and incubating at 37 °C in a 5% CO2 incubator, the transfected cells were harvested by trypsinization, neutralized with Dulbecco’s modified Eagle’s medium containing 10% fetal calf serum (FCS) and penicillin–streptomycin, washed once with Hank’s balanced salt solution (HBSS) containing 5 mM of HEPES (pH 7.4), and resuspended in 6 mL of the HEPES-containing HBSS. The cell suspension was seeded into a 96-well plate at a volume of […] per well (typically, 48 wells per transfected cells) and incubated for 30 min in the CO2 incubator. Test compounds (10×, diluted in 0.01% BSA and 5 mM of HEPES-containing HBSS, […] volume) were added to duplicate wells and incubated for 1 h. After centrifugation, the conditioned medium ([…]) was transferred to an empty 96-well plate. AP reaction solution [10 mM of p-nitrophenylphosphate (p-NPP), 120 mM of Tris–HCl (pH 9.5), 40 mM of NaCl, and 10 mM of MgCl2] was dispensed into the cell culture plates and plates containing conditioned media ([…]). Absorbance was measured at 405 nm before and after a 1-h incubation period at 25 °C using a microplate reader (iMark™ Microplate Absorbance Reader; BioRad). Ligand-induced AP-TGFα release was calculated as previously described. The vehicle-treated AP-TGFα release signal was set as a baseline unless otherwise specified. AP-TGFα release signals were fitted with a four-parameter sigmoidal concentration-response curve, from which EC50 and Emax values were obtained, using GraphPad Prism 9 software (GraphPad Prism). Negative values of logarithmically transformed EC50 values (pEC50) were used to calculate the mean and standard error of independent experiments.
(§2) All functional study data were analyzed using Prism 9 (GraphPad) and are presented as mean ± standard error of the mean (SEM) of three independent experiments. Statistical analyses were performed using Prism 9 (GraphPad) with one-way analysis of variance followed by Dunnett’s post-hoc test. Values with p < 0.05 are considered statistically significant.

human H4R D94A mutant = biological target: T2, human H4R D94A mutant (Homo sapiens, UniProt Q9H3N8, D94A); experiment: TGFα shedding assay, H4R D94A mutant; type: cell-based; settings: D94A mutant vs wild type
T2 construct: a mutant H4R (human, full-length, and untagged); expressed in transfected cells; host or cells: HEK293A
T2 sequence (Q9H3N8 whole entry D94A): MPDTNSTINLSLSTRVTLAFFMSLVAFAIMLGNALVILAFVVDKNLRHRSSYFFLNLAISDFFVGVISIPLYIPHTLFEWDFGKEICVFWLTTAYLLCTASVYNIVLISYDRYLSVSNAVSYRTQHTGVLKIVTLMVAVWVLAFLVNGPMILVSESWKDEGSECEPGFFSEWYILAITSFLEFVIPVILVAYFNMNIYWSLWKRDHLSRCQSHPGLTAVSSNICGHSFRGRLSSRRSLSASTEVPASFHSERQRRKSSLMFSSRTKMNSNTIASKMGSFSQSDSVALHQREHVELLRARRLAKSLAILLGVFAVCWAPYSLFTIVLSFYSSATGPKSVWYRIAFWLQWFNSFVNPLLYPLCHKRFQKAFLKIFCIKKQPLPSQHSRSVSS
Procedure: as §1
(§3) All functional study data were analyzed using Prism 9 (GraphPad) and are presented as mean ± standard error of the mean (SEM) of three independent experiments. […]

human H4R Y95A mutant = biological target: T3, human H4R Y95A mutant (Homo sapiens, UniProt Q9H3N8, Y95A); experiment: TGFα shedding assay, H4R Y95A mutant; type: cell-based; settings: Y95A mutant vs wild type
T3 construct: a mutant H4R (human, full-length, and untagged); expressed in transfected cells; host or cells: HEK293A
T3 sequence (Q9H3N8 whole entry Y95A): as the sequence (Q9H3N8 whole entry D94A) above, with A94D, Y95A counted along it
Procedure: as §1, §3

human H4R T99A mutant = biological target: T4, human H4R T99A mutant (Homo sapiens, UniProt Q9H3N8, T99A); experiment: TGFα shedding assay, H4R T99A mutant; type: cell-based; settings: T99A mutant; AP-TGFα release; read-out: Emax (%) mean ± SEM
T4 construct: a mutant H4R (human, full-length, and untagged); expressed in transfected cells; host or cells: HEK293A
T4 sequence (Q9H3N8 whole entry T99A): as the sequence (Q9H3N8 whole entry D94A) above, with A94D, T99A counted along it
Procedure: as §1, §2

human H4R N147A mutant = biological target: T5, human H4R N147A mutant (Homo sapiens, UniProt Q9H3N8, N147A); experiment: TGFα shedding assay, H4R N147A mutant; type: cell-based; settings: N147A mutant; AP-TGFα release; read-out: Emax (%) mean ± SEM
T5 construct: a mutant H4R (human, full-length, and untagged); expressed in transfected cells; host or cells: HEK293A
T5 sequence (Q9H3N8 whole entry N147A): as the sequence (Q9H3N8 whole entry D94A) above, with A94D, N147A counted along it
Procedure: as §1, §2

human H4R N147W mutant = biological target: T6, human H4R N147W mutant (Homo sapiens, UniProt Q9H3N8, N147W); experiment: TGFα shedding assay, H4R N147W mutant; type: cell-based; settings: N147W (H1R mimic) mutant vs wild type
T6 construct: a mutant H4R (human, full-length, and untagged); expressed in transfected cells; host or cells: HEK293A
T6 sequence (Q9H3N8 whole entry N147W): as the sequence (Q9H3N8 whole entry D94A) above, with A94D, N147W counted along it
Procedure: as §1, §2

human H4R N147Y mutant = biological target: T7, human H4R N147Y mutant (Homo sapiens, UniProt Q9H3N8, N147Y); experiment: TGFα shedding assay, H4R N147Y mutant; type: cell-based; settings: N147Y mutant; AP-TGFα release; read-out: Emax (%) mean ± SEM
T7 construct: a mutant H4R (human, full-length, and untagged); expressed in transfected cells; host or cells: HEK293A
T7 sequence (Q9H3N8 whole entry N147Y): as the sequence (Q9H3N8 whole entry D94A) above, with A94D, N147Y counted along it
Procedure: as §1, §2

human H4R E182N mutant = biological target: T8, human H4R E182N mutant (Homo sapiens, UniProt Q9H3N8, E182N); experiment: TGFα shedding assay, H4R E182N mutant; type: cell-based; settings: E182N (H1R mimic) mutant vs wild type
T8 construct: a mutant H4R (human, full-length, and untagged); expressed in transfected cells; host or cells: HEK293A
T8 sequence (Q9H3N8 whole entry E182N): as the sequence (Q9H3N8 whole entry D94A) above, with A94D, E182N counted along it
Procedure: as §1, §3

human H4R Y319A mutant = biological target: T9, human H4R Y319A mutant (Homo sapiens, UniProt Q9H3N8, Y319A); experiment: TGFα shedding assay, H4R Y319A mutant; type: cell-based; settings: Y319A, raw replicates
T9 construct: a mutant H4R (human, full-length, and untagged); expressed in transfected cells; host or cells: HEK293A
T9 sequence (Q9H3N8 whole entry Y319A): as the sequence (Q9H3N8 whole entry D94A) above, with A94D, Y319A counted along it
Procedure: as §1, §2

human H4R F344I mutant = biological target: T10, human H4R F344I mutant (Homo sapiens, UniProt Q9H3N8, F344I); experiment: TGFα shedding assay, H4R F344I mutant; type: cell-based; settings: F344I (H1R mimic) mutant vs wild type
T10 construct: a mutant H4R (human, full-length, and untagged); expressed in transfected cells; host or cells: HEK293A
T10 sequence (Q9H3N8 whole entry F344I): as the sequence (Q9H3N8 whole entry D94A) above, with A94D, F344I counted along it
Procedure: as §1, §2

human H4R Q347A mutant = biological target: T11, human H4R Q347A mutant (Homo sapiens, UniProt Q9H3N8, Q347A); experiment: TGFα shedding assay, H4R Q347A mutant; type: cell-based; settings: Q347A mutant; AP-TGFα release; read-out: Emax (%) mean ± SEM
T11 construct: a mutant H4R (human, full-length, and untagged); expressed in transfected cells; host or cells: HEK293A
T11 sequence (Q9H3N8 whole entry Q347A): as the sequence (Q9H3N8 whole entry D94A) above, with A94D, Q347A counted along it
Procedure: as §1, §2

human H4R Q347G mutant = biological target: T12, human H4R Q347G mutant (Homo sapiens, UniProt Q9H3N8, Q347G); experiment: TGFα shedding assay, H4R Q347G mutant; type: cell-based; settings: for Shedding assay: Q347G, raw replicates
T12 construct: a mutant H4R (human, full-length, and untagged); expressed in transfected cells; host or cells: HEK293A
T12 sequence (Q9H3N8 whole entry Q347G): as the sequence (Q9H3N8 whole entry D94A) above, with A94D, Q347G counted along it
Procedure: as §1, §2

human H4R W348A mutant = biological target: T13, human H4R W348A mutant (Homo sapiens, UniProt Q9H3N8, W348A); experiment: TGFα shedding assay, H4R W348A mutant; type: cell-based; settings: W348A mutant vs wild type
T13 construct: a mutant H4R (human, full-length, and untagged); expressed in transfected cells; host or cells: HEK293A
T13 sequence (Q9H3N8 whole entry W348A): as the sequence (Q9H3N8 whole entry D94A) above, with A94D, W348A counted along it
Procedure: as §1, §3

H4R = settings: cited from earlier work
H3R = settings: cited from earlier work
H1R = settings: range in words; cited from earlier work
H2R = settings: range in words; cited from earlier work

NCCc1c[nH]cn1 [Histamine, histamine]
Emax (human wild-type H4R): 19.4 ± 1.15%
signaling activity at mutant, in words (human H4R D94A mutant): loss of activity
signaling activity at mutant, in words (human H4R Y95A mutant): dramatically reduced
Emax (human H4R T99A mutant): 22.8 ± 4.74%
Emax (human H4R N147A mutant): 14.1 ± 1.55%
signaling activity at mutant, in words (human H4R N147W mutant): loss of signaling activity
Emax (human H4R N147Y mutant): 12.7 ± 0.59%
signaling activity at mutant, in words (human H4R E182N mutant): loss of signaling activity
Shedding assay (human H4R Y319A mutant; Histamine (M) -5): 10.8768 and 12.6921 and 5.241 and 7.176 and 7.908 and 3.094 and 14.7688 and 13.1717 and 9.412
Shedding assay (human H4R Y319A mutant; Histamine (M) -6): 7.788 and 3.872 and 6.096 and 6.136 and 6.023 and -28.9656 and 4.365 and 5.9934 and -0.2046
Shedding assay (human H4R Y319A mutant; Histamine (M) -7): 2.44 and -1.231 and 2.155 and 1.85 and -1.394 and -29.3347 and -0.9921 and -1.291 and -2.241
Shedding assay (human H4R Y319A mutant; Histamine (M) -8): 0.6613 and -7 and -0.6175 and -0.4917 and -2.608 and -5.072 and 0.7937 and -1.913 and -2.583
Shedding assay (human H4R Y319A mutant; Histamine (M) -9): -1.209 and -22 and -6.981 and -12.6602 and -5.831 and -0.2422 and 1.077 and -0.278 and -3.864
Shedding assay (human H4R Y319A mutant; Histamine (M) -10): 1.569 and -4.989 and -1.258 and -2.207 and 3.939 and 1.7806 and 0.1134 and -2.911 and -0.5847
signaling activity at mutant, in words (human H4R F344I mutant): did not exhibit histamine activity
Emax (human H4R Q347A mutant): 10.1 ± 0.39%
Shedding assay (human H4R Q347G mutant; Histamine (M) -5): 4.036 and 4.533 and 6.034 and 9.629 and 9.888 and 8.1039 and 5.715 and 9.816 and 2.227
Shedding assay (human H4R Q347G mutant; Histamine (M) -6): 1.244 and 2.414 and 2.709 and 6.101 and 2.59 and 6.7488 and 1.268 and 6.261 and -9.381
Shedding assay (human H4R Q347G mutant; Histamine (M) -7): -1.992
Shedding assay (human H4R Q347G mutant; Histamine (M) -8): -6.39 and -0.908 and -4.351 and 0.1532 and -4.023 and 1.012 and -2.686 and 0.1556 and -3.9539
Shedding assay (human H4R Q347G mutant; Histamine (M) -9): -4.698 and -2.781 and -3.3698 and 0.654 and -4.363 and -0.5978 and -4.585 and -1.275 and -2.147
Shedding assay (human H4R Q347G mutant; Histamine (M) -10): -5.104 and -0.2815 and -4.911 and 2.46 and -0.8571 and 1.119 and -8.947 and 3.16 and -0.4453
Emax (human H4R Q347G mutant; Q347G mutant, AP-TGFα release, read-out: Emax (%) mean ± SEM): 8.8 ± 2.03%
signaling activity at mutant, in words (human H4R W348A mutant): loss of signaling activity
affinity of H4R (H4R; range in words): nM range
affinity of H3R (H3R; range in words): nM range
affinity of H1R (H1R): μM range
affinity of H2R (H2R): μM range

CN=C(NC#N)NC[C@H]1CC[C@H](c2cnc[nH]2)O1 [OUP-16]
selectivity for H4R (H4R; H4R over H3R): 16 fold
Ki (H4R; read-out: H4R Ki): 0.125 µM
Ki (H3R; read-out: H3R Ki): 2 µM
